Marks after values point to notes of the source that are not given here.
Key:
Assay type in all cases: in vivo, rat
IRS-2 mRNA = IRS-2 mRNA level in liver of ORX rats; conditions: for IRS-2 mRNA/GAPDH mRNA level in rat liver: solvent 4.8, sham 1.0
Excerpt: (§1) After housing the animals, the animals were anesthetized with ether, and underwent bilateral orchiectomy (orchiectomized rats: ORX) or a sham treatment. After awaking from the anesthesia, the animals were assigned to test groups of 3 to 5 animals each. […] After 21 days, the rats were sacrificed by exsanguination from the abdominal artery, the ventral prostates and anal levator muscle were excised and weighed followed by immersing in RNAlater (Nacalai Tesque) for extraction of RNA. In addition, soft tissue was removed from the right femur, and immersed in 75% ethanol followed by storage for subsequent measurement of the bone mineral density. Moreover, liver and visceral fat tissue were collected and immersed in RNAlater for RNA extraction.
(§2) Total RNA in various tissues of the ORX rats was isolated using the RNeasy Mini Kit or RNeasy Fibrous Tissue Mini Kit (Qiagen). 1 μg of this total RNA was subjected to reverse transcription using the QuantiaTect Reverse Transcription Kit (Qiagen). Next, cDNA was subjected to real-time PCR analysis using LightCycler (Roche Diagnostics) and each of the transcription products was quantified. Furthermore, PCR was carried out in 20 μl of a reaction mixture under the following conditions using SYBR Premix Ex Taq (Takara Biotechnology): 50 cycles consisting of denaturation for 5 seconds at 95° C., annealing for 20 seconds at 60° C. and elongation for 25 seconds at 72° C. In addition, glyceraldehyde-3-phosphate dehydrogenase (GAPDH) mRNA was simultaneously amplified as an internal standard, and the real-time PCR value of each transcription product were calculated as a relative value based on GAPDH.
(§3) In addition, mRNA levels of insulin receptor substrate 2 (IRS-2) in the liver were also measured.

FAS mRNA = FAS mRNA level in liver and visceral fat of ORX rats
Excerpt: as §1, §2, §3

PPARδ mRNA = PPARδ mRNA in anal levator muscle of ORX rats; conditions: for PPARδ mRNA/GAPDH mRNA in anal levator muscle: solvent 1.0, sham 0.5; for Effect on PPARδ mRNA expression in anal levator muscle (in words): dihydrotestosterone 1 and 10 mg/kg, compound of formula (Ia) 10 mg/kg
Procedure: (§4) 11-week-old, male Sprague-Dawley (SD) rats (320 to 340 g, purchased from Charles River Japan) were housed for 1 week in a room maintained at a light-dark cycle of 12 hours per day and controlled at a set temperature and humidity while allowing free access to a commercially available standard rodent diet and water.
(§5) After housing the animals, the animals were anesthetized with ether, and underwent bilateral orchiectomy (orchiectomized rats: ORX) or a sham treatment. After awaking from the anesthesia, the animals were assigned to test groups of 3 to 5 animals each. Starting on the day after surgery, the animals were subcutaneously injected once a day with an injection solution of the test compound (prepared by dissolving the test compound in a small amount of DMSO and diluting with olive oil for animal testing (consisting of 95% olive oil and 5% DMSO)) at the rate of 0.1 ml/100 g of body weight. After 21 days, the rats were sacrificed by exsanguination from the abdominal artery, the ventral prostates and anal levator muscle were excised and weighed followed by immersing in RNAlater (Nacalai Tesque) for extraction of RNA. In addition, soft tissue was removed from the right femur, and immersed in 75% ethanol followed by storage for subsequent measurement of the bone mineral density. Moreover, liver and visceral fat tissue were collected and immersed in RNAlater for RNA extraction.
as §2
In addition, expression levels of peroxisome proliferator activating factor receptor-delta (PPARδ) mRNA in anal levator muscle were also measured. This is because this nuclear receptor has been indicated to be related to β-oxidation of fatty acids and energy consumption in skeletal muscle (Proc. Natl. Acad. Sci. USA, 100, 15924-15929). Furthermore, measurements were carried out using a similar method as that previously described.

ORX rats [1] = assay: Plasma FSH concentration in ORX rats; conditions: for Plasma FSH concentration: solvent 44.1, sham 12.1; for Effect on FSH levels (in words): dose of 1 or 10 mg/kg
Excerpt: as §1
Characteristics of the effect of compounds on the pituitary gland were investigated by measuring plasma concentrations of LH and FSH in ORX rats treated in the aforementioned section (4)-1).

ORX rats [2] = assay: Total plasma adiponectin level in ORX rats; conditions: for Plasma adiponectin concentration: solvent 2.2, sham 1.3
Procedure: as §4, §5
(§6) The inventors of the present invention measured total plasma adiponectin levels in ORX rats treated in the aforementioned section (4)-1). Plasma insulin levels were also measured simultaneously.

ORX rats [3] = assay: Prostate weight in ORX rats (virilization effect); conditions: for Prostate weight: 21 days, solvent 10.2, sham 132.5; for Change in prostate weight (in words): doses of 1 to 10 mg/kg body weight
Procedure: The virilization effect of compounds was studied by using the changes in prostate weight during administration of the compounds to ORX rats as an indicator of virilization effect.
as §4, §5

SREBP-1c mRNA = SREBP-1c mRNA level in liver and visceral fat of ORX rats
Excerpt: as §1, §2, §3

ORX rats [4] = assay: Plasma insulin level in ORX rats; conditions: for Plasma insulin concentration: solvent 1.0, sham 1.6; for Effect on insulin levels (in words): 1 and 10 mg/Kg
Excerpt: as §1, §6

ORX rats [5] = assay: Anal levator muscle weight in ORX rats (anabolic effect); conditions: for Anal levator muscle weight: 21 days, solvent 41.6, sham 73.1; for Change in anal levator muscle weight (in words): dihydrotestosterone 1 and 10 mg/kg, compound of formula (Ia) 10 mg/kg
Procedure: as §4, §5
The anabolic effect of compounds was studied by using as indicators changes in anal levator muscle weight and bone mineral density (BMD) of the femur and vertebra in the ORX rats treated in the aforementioned section (4)-1).
Anal levator muscle is a typical skeletal muscle localized around the rat rectum, and is considered to be sensitive to male steroid hormone. Although the anal levator muscle is considerably smaller in castrated rats as compared with normal male rats, its weight is well known to be able to be restored to normal by administration of androgen (J. Pharmacol. Exp. Ther., 91, 38-44). The results of measuring the weights of the anal levator muscle in the ORX rats obtained in section (4)-1) are shown in the following Table 7.

UCP-1 mRNA = UCP-1 mRNA level in visceral fat of ORX rats; conditions: for UCP-1 mRNA/GAPDH mRNA level in rat visceral fat: solvent 1.0, sham 1.0
Procedure: as §4, §5, §2
Thus, UCP-1 mRNA levels in rat visceral fat were also measured for the purpose of confirmation.

[6] = liver, 1 mg/Kg, solvent 0.9, sham 1.0
[7] = liver, 10 mg/Kg, solvent 0.9, sham 1.0
[8] = visceral fat, 1 mg/Kg, solvent 0.5, sham 1.0
[9] = visceral fat, 10 mg/Kg, solvent 0.5, sham 1.0
[10] = liver, 1 mg/Kg, solvent 0.7, sham 1.0
[11] = liver, 10 mg/Kg, solvent 0.7, sham 1.0
[12] = visceral fat, 1 mg/Kg, solvent 1.0, sham 1.0
[13] = visceral fat, 10 mg/Kg, solvent 1.0, sham 1.0

Compound	Effect on liver IRS-2 mRNA level (in words) (IRS-2 mRNA)	IRS-2 mRNA/GAPDH mRNA level in rat liver (IRS-2 mRNA; 1 mg/Kg)	IRS-2 mRNA/GAPDH mRNA level in rat liver (IRS-2 mRNA; 10 mg/Kg)	FAS mRNA/GAPDH mRNA level (FAS mRNA; [6])	FAS mRNA/GAPDH mRNA level (FAS mRNA; [7])	FAS mRNA/GAPDH mRNA level (FAS mRNA; [8])	FAS mRNA/GAPDH mRNA level (FAS mRNA; [9])	PPARδ mRNA/GAPDH mRNA in anal levator muscle (PPARδ mRNA; 1 mg/Kg)	PPARδ mRNA/GAPDH mRNA in anal levator muscle (PPARδ mRNA; 10 mg/Kg)	Effect on PPARδ mRNA expression in anal levator muscle (in words) (PPARδ mRNA)	Effect on FSH levels (in words) (ORX rats [1])	Prostate weight (ORX rats [3]; 1 mg/Kg s.c. once a day)	Prostate weight (ORX rats [3]; 10 mg/Kg s.c. once a day)	Change in prostate weight (in words) (ORX rats [3])	SREBP-1c mRNA/GAPDH mRNA level (SREBP-1c mRNA; [10])	SREBP-1c mRNA/GAPDH mRNA level (SREBP-1c mRNA; [11])	SREBP-1c mRNA/GAPDH mRNA level (SREBP-1c mRNA; [12])	SREBP-1c mRNA/GAPDH mRNA level (SREBP-1c mRNA; [13])	Effect on insulin levels (in words) (ORX rats [4])	Anal levator muscle weight (ORX rats [5]; 1 mg/Kg s.c. once a day)	other results
CC(=O)[C@H]1CCC2C3CCc4c(C)cccc4C3CC[C@@]21C (some centres unmarked) [Compound of formula (Ia)]	increased	10.6**	8.8*	0.7	0.5	0.3*	0.6	0.9	1.7*	enhanced this expression	did not have any effect on FSH	11.1** mg/100 g of body weight	13.3** mg/100 g of body weight	did not increase	0.8	0.6	0.8	0.5	this activity was milder	59.1^ mg/100 g body weight	FAS mRNA levels (in words) (FAS mRNA; liver and visceral fat): also lower; Plasma FSH concentration (ORX rats [1]; 1 mg/Kg): 48.7* ng/mL; Plasma FSH concentration (ORX rats [1]; 10 mg/Kg): 46.3* ng/mL; Plasma adiponectin concentration (ORX rats [2]; 1 mg/Kg): 2.2* μg/mL; Plasma adiponectin concentration (ORX rats [2]; 10 mg/Kg): 2.1* μg/mL; Effect on castration-induced increase of plasma adiponectin (in words) (ORX rats [2]; 1 or 10 mg/kg): did not demonstrate such inhibitory activity on the adiponectin levels; SREBP-1c mRNA levels (in words) (SREBP-1c mRNA; liver and visceral fat): lower in both tissues; Plasma insulin concentration (ORX rats [4]; 1 mg/Kg): 1.5 µg/mL; Plasma insulin concentration (ORX rats [4]; 10 mg/Kg): 2.9 µg/mL; Anal levator muscle weight (ORX rats [5]; 10 mg/Kg s.c. once a day): 66.2* mg/100 g body weight; Change in anal levator muscle weight (in words) (ORX rats [5]): increased significantly to a similar level to that observed in the sham treatment group; Effect on visceral fat UCP-1 mRNA levels (in words) (UCP-1 mRNA): this increase was not significant; UCP-1 mRNA/GAPDH mRNA level in rat visceral fat (UCP-1 mRNA; 1 mg/Kg): 1.7; UCP-1 mRNA/GAPDH mRNA level in rat visceral fat (UCP-1 mRNA; 10 mg/Kg): 1.5
C[C@]12CCC(=O)C[C@@H]1CC[C@@H]1[C@@H]2CC[C@]2(C)[C@@H](O)CC[C@@H]12 [Dihydrotestosterone, 5α-dihydrotestosterone, reference compound]	decreased	5.1	0.8	8.0	7.1	2.3	3.5*^,#	0.9	0.5	inhibited this expression dose-dependently	inhibited to levels observed in the untreated control group	168.6**^,## mg/100 g of body weight	216.9*^,## mg/100 g of body weight	increased dose-dependently	3.4	3.2	1.8	2.2	increased the insulin levels	93.8^## mg/100 g body weight	Anal levator muscle weight (ORX rats [5]; 10 mg/Kg s.c. once a day): 120.6**^,## mg/100 g body weight; Change in anal levator muscle weight (in words) (ORX rats [5]): weights increased beyond those in the case of the sham treated rats; Effect on visceral fat UCP-1 mRNA levels (in words) (UCP-1 mRNA): had hardly any effect on UCP-1 mRNA levels; UCP-1 mRNA/GAPDH mRNA level in rat visceral fat (UCP-1 mRNA; 1 mg/Kg): 0.8; UCP-1 mRNA/GAPDH mRNA level in rat visceral fat (UCP-1 mRNA; 10 mg/Kg): 0.9

Source: patent US8623909B2, “Prophylactic/therapeutic agents for lifestyle-related diseases” (priority 2008, dated 2014)
